# Tests used:
# GLUT-1 = assay: qRT-PCR, GLUT-1 mRNA expression; format: cell-based, human; details: HCT 116 p53-/-, 24 and 48 h
# Method: The cells were seeded in 35 mm Petri dishes at a density of 500,000 cells and incubated at 37 °C for 24 h. The total RNA was isolated after incubation with solutions of 13 (0.5 µM and 1.0 µM) for 24 h and 48 h, respectively. The isolation from the samples was carried out according to a TRIzol™ Reagent protocol (Thermo Fisher Scientific). Synthesis of cDNA was performed with 2 µg of total RNA using a GoScript™ Reverse Transcriptase kit (Promega) with Oligo(dT)23 Primers. Real-Time PCR was carried out using a CFX96 Touch™ Real-Time PCR Detection System (Bio-Rad) in 10 µL reaction volume. Each sample contained SsoAdvanced™ Universal SYBR Green Supermix (Bio Rad), a specific primer pair mix (0.5 µM each), and 1 µL of cDNA. […] The obtained data were analysed based on a comparison of the expression of the target genes and normalized to a reference gene (GAPDH) using the Livak-Schmittgen (2^−ΔΔCT) method. […]
# To verify the effect of derivative 13 on glucose transporters at the mRNA level, the expression of the genes encoding the best-characterised glucose transporters in cells was quantified in real-time. In addition to GLUT-1, the effect of the tested derivative on changes in the expression of GLUT-3 and GLUT-4 was also evaluated (Fig. 8). […]
# HO-1 = assay: Western blot, HO-1 protein level; format: cell-based, human; details: 24 h
# Method: The cells (500,000) were seeded in 35 mm Petri dishes (Nunc) and incubated in a solution of the tested compound (0.5 µM and 1 µM) for 24 h and 48 h. The cells were then dissociated using trypsin, collected in Eppendorf tubes, and centrifuged at 2,000 rpm. Next, cell pellets were resuspended in complete RIPA buffer containing a Halt Protease Inhibitor Cocktail and Halt Phosphatase Inhibitor Cocktail along with 0.5 M EDTA (all reagents from Thermo Fisher Scientific) and lysed on ice for 20 min. Afterward, the lysates were sonicated and centrifuged at 10,000 rpm for 10 min at 4 °C. The obtained supernatants were collected for further analysis. The protein concentration was determined using a Micro BCA™ Protein Assay Kit (Thermo Fisher Scientific) according to the manufacturer’s procedure. Equal amounts of proteins (16 µg) were electrophoresed on SDS-Page gels and transferred onto nitrocellulose membranes. Novex Sharp Pre-Stained Protein Standard (Thermo Fisher Scientific) was used as a colored molecular weight marker. The membranes were blocked in 5% non-fat milk prepared in TPBS (PBS supplemented by 0.1% Tween-20) for 1 h. After blocking, the membranes were cut, and then incubated with specific primary monoclonal antibodies (all purchased from Cell Signaling) overnight at 4 °C. The antibodies for the target proteins (CDK1 Mouse mAb #9116, p53 Mouse mAb #2524, FAS Mouse mAb #8023, GLUT-1 Rabbit mAb #12939, HO-1 Rabbit mAb #5853, p21^Waf1/Cip1 Rabbit mAb #2947, PARP #9542) were diluted 1:1000, while the antibodies for the reference proteins (GAPDH Rabbit mAb #2118, β-actin Mouse mAb #3700, and vinculin Rabbit mAb #13901) were diluted 1:2000. The following day, the membranes were washed in TPBS and incubated with horseradish peroxidase (HRP)-conjugated secondary antibodies (Anti-rabbit IgG, HRP-linked Antibody #7074 or Anti-mouse IgG, HRP-linked Antibody #7076) for 1 h at room temperature. The membranes were then washed in TPBS and incubated with a SuperSignal™ West Pico Chemiluminescent Substrate (Thermo Fisher Scientific). […]
smiles,measurement,setting,value
O=[N+]([O-])c1ccc(/C=C/c2ccnc3ccccc23)o1 [Compound 13],GLUT-1 mRNA level vs control,GLUT-1,significant decrease
same,HO-1 protein level vs control,"HO-1; HCT 116 p53+/+, 1 µM",more than twelve-fold
same,HO-1 protein level vs control,"HO-1; HCT 116 p53-/-, 1 µM",six-fold
same,HO-1 protein level vs control,"HO-1; U-251, 1 µM",four-fold
